# From article PMC5008228 (Journal of Parkinson's Disease, 2016)
# Values joined by “and” are separate entries in the source; they are usually repeats but may differ in a detail not shown here. Equal values may be shown once.
# How the values were obtained:
# [1] = Nilotinib pharmacokinetics in plasma by mass spectrometry; assay type: in vivo; settings: human, po, unbound Nilotinib; for AUC: Plasma AUC; for Cmax: Plasma Cmax
# [2] = system: Neuron Specific Enolase (NSE); assay: Neurodegenerative disease magnetic bead panel, NSE; assay type: in vivo, human; settings: 6 months
# DJ-1 = assay: Neurodegenerative disease magnetic bead panel, DJ-1; assay type: in vivo, human
# S100B = assay: Neurodegenerative disease magnetic bead panel, S100B; assay type: in vivo, human
# Aβ40 = assay: Neurodegenerative disease magnetic bead panel, Aβ40; assay type: in vivo, human
# α-synuclein = α-synuclein sandwich ELISA in CSF and plasma; assay type: in vivo, human; settings: for Plasma α-synuclein vs baseline: 2 months
# PDD or DLB participants = assay: Unified Parkinson's Disease Rating Scale; assay type: in vivo, human; settings: for UPDRS-I-IV score / UPDRS-III score: individual participants
smiles,measurement,setting,value
Cc1cn(-c2cc(NC(=O)c3ccc(C)c(Nc4nccc(-c5cccnc5)n4)c3)cc(C(F)(F)F)c2)cn1 [Nilotinib],AUC,"[1]; 150 mg, 150 mg oral",157 ng·h/mL
same,Cmax,"[1]; 150 mg, 150 mg oral",55 nM
same,AUC,"[1]; 300 mg, 300 mg oral",232 ng·h/mL
same,Cmax,"[1]; 300 mg, 300 mg oral",86 nM
same,CSF NSE level vs baseline,[2]; 150 mg group,significantly reduced
same,CSF NSE level vs baseline,[2]; 300 mg group,significantly reduced
same,CSF DJ-1,DJ-1; 150 mg group,trended towards a decrease
same,CSF DJ-1 vs baseline,"DJ-1; 300 mg group, six months",significantly reduced
same,CSF S100B level,S100B; 150 mg group,gradually reduced
same,CSF S100B level,S100B; 300 mg group,gradually reduced
same,CSF Aβ40,Aβ40; 150 mg group,No changes
same,CSF Aβ40 vs baseline,"Aβ40; 300 mg group, 6 months",significantly reduced
same,Plasma α-synuclein at 6 months compared to 2 months,α-synuclein; 150 mg group,significantly higher
same,CSF α-synuclein vs baseline,"α-synuclein; 150 mg group, 2 and 6 months",slightly reduced
same,Plasma α-synuclein vs baseline,α-synuclein; 150 mg group,slightly reduced
same,CSF α-synuclein at 2 months compared to 6 months,"α-synuclein; 150 mg group, t-test",significantly (t-test) lower
same,Plasma α-synuclein vs baseline,α-synuclein; 300 mg group,significantly reduced
same,Plasma α-synuclein,"α-synuclein; 300 mg group, 6 months",returned to baseline
same,CSF α-synuclein,"α-synuclein; 300 mg group, between baseline, 2 and 6 months",unaltered
same,"UPDRS-III score, AVG","PDD or DLB participants; 150 mg oral daily, Week-4, group AVG (Screening AVG 37.8)",29.4
same,UPDRS-I-IV score,"PDD or DLB participants; 150 mg oral daily, Week-4",54 and 103 and 43 and 71 and 50
same,UPDRS-III score,"PDD or DLB participants; 150 mg oral daily, Week-4",29 and 55 and 33 and 26
same,"UPDRS-III score, AVG","PDD or DLB participants; 150 mg oral daily, Week-8, group AVG (Screening AVG 37.8)",35.6
same,"UPDRS-I-IV score, AVG","PDD or DLB participants; 150 mg oral daily, Week-8, group AVG (Screening AVG 72.60)",69.00
same,UPDRS-I-IV score,"PDD or DLB participants; 150 mg oral daily, Week-8",57 and 76 and 63 and 45
same,UPDRS-III score,"PDD or DLB participants; 150 mg oral daily, Week-8",32 and 56 and 39 and 28 and 23
same,"UPDRS-III score, AVG","PDD or DLB participants; 150 mg oral daily, Week-12, group AVG (Screening AVG 37.8)",36.6
same,"UPDRS-I-IV score, AVG","PDD or DLB participants; 150 mg oral daily, Week-12, group AVG (Screening AVG 72.60)",69.40
same,UPDRS-I-IV score,"PDD or DLB participants; 150 mg oral daily, Week-12",56 and 107 and 77 and 60 and 47
same,UPDRS-III score,"PDD or DLB participants; 150 mg oral daily, Week-12",32 and 59 and 40 and 30 and 22
same,"UPDRS-III score, AVG","PDD or DLB participants; 150 mg oral daily, Week-16, group AVG (Screening AVG 37.8)",38
same,"UPDRS-I-IV score, AVG","PDD or DLB participants; 150 mg oral daily, Week-16, group AVG (Screening AVG 72.60)",70.20
same,UPDRS-I-IV score,"PDD or DLB participants; 150 mg oral daily, Week-16",58 and 107 and 80 and 63 and 43
same,UPDRS-III score,"PDD or DLB participants; 150 mg oral daily, Week-16",33 and 59 and 43 and 22
same,"UPDRS-III score, AVG","PDD or DLB participants; 150 mg oral daily, Week-20, group AVG (Screening AVG 37.8)",36.2
same,"UPDRS-I-IV score, AVG","PDD or DLB participants; 150 mg oral daily, Week-20, group AVG (Screening AVG 72.60)",67.80
same,UPDRS-I-IV score,"PDD or DLB participants; 150 mg oral daily, Week-20",53 and 83 and 57 and 38
same,UPDRS-III score,"PDD or DLB participants; 150 mg oral daily, Week-20",29 and 60 and 42 and 31 and 19
same,"UPDRS-III score, AVG","PDD or DLB participants; 150 mg oral daily, Week-24, group AVG (Screening AVG 37.8)",34.4
same,"UPDRS-I-IV score, AVG","PDD or DLB participants; 150 mg oral daily, Week-24, group AVG (Screening AVG 72.60)",65.60
same,UPDRS-I-IV score,"PDD or DLB participants; 150 mg oral daily, Week-24",44 and 83 and 53 and 40
same,UPDRS-III score,"PDD or DLB participants; 150 mg oral daily, Week-24",23 and 60 and 42 and 29 and 18
same,Average decrease in UPDRS I-IV,"PDD or DLB participants; 150 mg oral daily, at 6 months",7 points
same,Average decrease in UPDRS-III (motor),"PDD or DLB participants; 150 mg oral daily, week 24 compared to baseline",3.4 points
same,"UPDRS-III score, AVG","PDD or DLB participants; 300 mg oral daily, Week-4, group AVG (Screening AVG 30.6)",28
same,"UPDRS-I-IV score, AVG","PDD or DLB participants; 300 mg oral daily, Week-4, group AVG (Screening AVG 62.5)",60.8
same,UPDRS-I-IV score,"PDD or DLB participants; 300 mg oral daily, Week-4",31 and 45 and 21 and 49 and 116 and 103
same,UPDRS-III score,"PDD or DLB participants; 300 mg oral daily, Week-4",11 and 14 and 7 and 22 and 67 and 47
same,"UPDRS-III score, AVG","PDD or DLB participants; 300 mg oral daily, Week-8, group AVG (Screening AVG 30.6)",28
same,"UPDRS-I-IV score, AVG","PDD or DLB participants; 300 mg oral daily, Week-8, group AVG (Screening AVG 62.5)",60.3
same,UPDRS-I-IV score,"PDD or DLB participants; 300 mg oral daily, Week-8",28 and 41 and 25 and 45 and 118 and 105
same,UPDRS-III score,"PDD or DLB participants; 300 mg oral daily, Week-8",9 and 11 and 18 and 70 and 49
same,"UPDRS-III score, AVG","PDD or DLB participants; 300 mg oral daily, Week-12, group AVG (Screening AVG 30.6)",26.6
same,"UPDRS-I-IV score, AVG","PDD or DLB participants; 300 mg oral daily, Week-12, group AVG (Screening AVG 62.5)",57.3
same,UPDRS-I-IV score,"PDD or DLB participants; 300 mg oral daily, Week-12",26 and 41 and 19 and 46 and 115 and 97
same,UPDRS-III score,"PDD or DLB participants; 300 mg oral daily, Week-12",9 and 11 and 8 and 18 and 67 and 47
same,"UPDRS-III score, AVG","PDD or DLB participants; 300 mg oral daily, Week-16, group AVG (Screening AVG 30.6)",27.8
same,"UPDRS-I-IV score, AVG","PDD or DLB participants; 300 mg oral daily, Week-16, group AVG (Screening AVG 62.5)",58.8
